In patent US6630321B1, “Method for identifying a compound that modulates the function of the gene product of an essential gene” (priority 1999, dated 2003):
Numbered stars: 1 amine (or outer) side, 2 acyl side, 3 side chain; on linkers, the order of the positions; unused ones are H or OH. Square brackets hold non-standard residues; d marks the D form. Peptide text beside a SMILES is read from it. X1 = CC[C@@H](C)[C@@H](O[*:1])C(=O)[*:2]; NMeVal(β-OH) = CN[C@H](C(=O)O)C(C)(C)O; NMeF = CN[C@@H](Cc1ccccc1)C(=O)O; aIle = CC[C@@H](C)[C@H](N)C(=O)O; NMeV = CN[C@H](C(=O)O)C(C)C

What was measured:
GAL1-ERG11 strain = assay: growth (optical density) hypersensitivity of GAL1-ERG11 strain after promoter switch-off, compared to wild type; assay type: cell-based, S. cerevisiae; conditions: GAL1 promoter switched OFF (galactose to glucose), final optical density vs wt
Excerpt: (§1) By “viable” we mean cells that have grown sufficiently so that when gene expression of an essential gene is turned off, meaningful measurements and kinetic analysis may be made. The cells are preferably allowed to grow into early stationary phase by which time a final optical density reading is taken. A reduced optical density compared to no drug or no switchoff controls is interpreted as growth inhibition.
(§2) However no reduction in growth will be observed as long as the amount of active Erg11p is high enough not to be rate limiting for growth (above the threshold, see FIG. 2) In our example the fluconazole concentration is insufficient to reduce Erg11p activity below this threshold. The situation for a GAL1-driven ERG11 gene is different however: At time 0 the gene's engineered promoter is switched from the ON state (because of the high expression of a GAL1 promoter this level is usually higher than for the native promoter) to the OFF state by changing the carbon source in the culture. From this timepoint on no new mRNA is transcribed and—after decay of the mRNA—no new Erg11 protein is being synthesized. Erg11 concentrations are now falling due to the dilution of the enzyme into new daughter cells and protein decay of Erg11p. […] This is reflected by a lower final optical density of the culture. […] Therefore the threshold-line is crossed earlier, as no new Erg11p can be synthesized. Compared to the wild-type cell, this is seen as hypersensitivity (larger reduction in growth in the presence of an identical concentration of drug). Simplified one can explain this as a reduced amount of cell-doublings before rate-limiting conditions occur.
For target and compound evaluation the hypersensitivity has to be specific for certain drug-target combinations. Therfore the method was tested and validated with another unrelated known drug-target combination: The AUR1 gene encodes inositolphosphorylceramide (IPC) synthase, an essential enzyme of the fungal sphingolipid biosynthetic pathway (Nagiec et al, J.Biol.Chem., 1997, 272,15, 9809-9817). […]

[1] = target: Erg11p, lanosterol C-14-demethylase (Saccharomyces cerevisiae, UniProt P10614); conditions: cited from earlier work
GAL1-AUR1 strain = assay: growth (optical density) hypersensitivity of GAL1-AUR1 strain after promoter switch-off, compared to wild type; assay type: cell-based, S. cerevisiae; conditions: GAL1 promoter switched OFF (galactose to glucose), final optical density vs wt
Excerpt: as §1
as §2, with “Compared to the wild-type cell, this is seen as hypersensitivity (larger reduction in growth in the presence of an identical concentration of drug). Simplified one can explain this as a reduced amount of cell-doublings before rate-limiting conditions occur.” left out

[2] = target: Erg1p, squalene epoxidase (Saccharomyces cerevisiae, UniProt P32476); conditions: cited from earlier work
GAL1-ERG1 strain = assay: growth (optical density) hypersensitivity of GAL1-ERG1 strain after promoter switch-off, compared to wild type; assay type: cell-based, S. cerevisiae; conditions: GAL1 promoter switched OFF, FIG. 5
Excerpt: as §1
It follows that the hypersensitive reaction towards an inhibitor of one enzyme in a pathway may be extended to inhibitors of the whole pathway. This is due to the linear arrangement of enzymes in a biochemical cascade of reactions where one enzyme provides substrate for the next. A reduced substrate supply can act synergistically with a reduced enzyme level. Thus the activity of the almost rate-limiting enzyme Erg11p (after switchoff) will be reduced further by withdrawal of its substrate normally provided by Erg1p, squalene epoxidase, another enzyme of the sterol biosynthetic pathway, through several biochemical steps. Erg1p is now inhibited by terbinafine. Any such pathway specific hypersensitivity allows the categorisation of (uncategorised) genes into the same pathway as the switched off gene. To investigate this, we examined Erg1p. […] This pathway-specific analysis tool will be extremely useful for the classification of novel inhibitors (with unknown mode of action).

[3] = target: T1, inositolphosphorylceramide (IPC) synthase (AUR1) (Saccharomyces cerevisiae, UniProt P36107); conditions: cited from earlier work
T1 sequence (P36107 1-401): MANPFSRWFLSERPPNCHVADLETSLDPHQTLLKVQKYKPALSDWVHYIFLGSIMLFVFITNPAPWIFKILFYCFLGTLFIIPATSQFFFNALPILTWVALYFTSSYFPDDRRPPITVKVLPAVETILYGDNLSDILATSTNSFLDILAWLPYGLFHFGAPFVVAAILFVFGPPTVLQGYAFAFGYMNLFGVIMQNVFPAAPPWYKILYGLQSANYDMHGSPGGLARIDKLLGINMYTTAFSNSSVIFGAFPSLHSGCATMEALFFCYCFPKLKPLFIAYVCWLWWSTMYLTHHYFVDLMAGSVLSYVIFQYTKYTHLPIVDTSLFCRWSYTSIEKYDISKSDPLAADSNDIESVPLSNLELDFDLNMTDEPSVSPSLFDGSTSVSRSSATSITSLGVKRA
T1 sequence (Q06346 1-221 partner): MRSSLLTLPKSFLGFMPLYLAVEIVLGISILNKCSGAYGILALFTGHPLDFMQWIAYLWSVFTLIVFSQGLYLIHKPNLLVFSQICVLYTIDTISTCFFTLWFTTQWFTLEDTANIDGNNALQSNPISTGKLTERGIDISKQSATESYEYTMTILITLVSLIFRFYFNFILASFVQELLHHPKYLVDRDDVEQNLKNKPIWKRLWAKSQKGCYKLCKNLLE

Erg11p, lanosterol C-14-demethylase, sequence (P10614 whole entry): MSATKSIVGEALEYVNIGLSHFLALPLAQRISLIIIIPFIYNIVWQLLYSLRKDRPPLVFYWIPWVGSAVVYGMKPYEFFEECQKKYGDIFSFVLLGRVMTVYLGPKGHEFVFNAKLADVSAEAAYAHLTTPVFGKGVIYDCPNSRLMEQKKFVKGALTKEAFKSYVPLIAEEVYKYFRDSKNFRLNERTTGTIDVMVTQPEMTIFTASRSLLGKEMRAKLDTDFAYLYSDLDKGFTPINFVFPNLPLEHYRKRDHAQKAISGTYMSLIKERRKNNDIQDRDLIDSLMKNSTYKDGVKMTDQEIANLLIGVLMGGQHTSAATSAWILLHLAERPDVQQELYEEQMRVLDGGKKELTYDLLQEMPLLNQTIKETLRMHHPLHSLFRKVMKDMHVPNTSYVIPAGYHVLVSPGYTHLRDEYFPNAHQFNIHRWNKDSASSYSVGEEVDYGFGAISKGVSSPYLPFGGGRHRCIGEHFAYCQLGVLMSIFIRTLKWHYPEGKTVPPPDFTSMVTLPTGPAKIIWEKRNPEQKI
Erg1p, squalene epoxidase, sequence (P32476 whole entry): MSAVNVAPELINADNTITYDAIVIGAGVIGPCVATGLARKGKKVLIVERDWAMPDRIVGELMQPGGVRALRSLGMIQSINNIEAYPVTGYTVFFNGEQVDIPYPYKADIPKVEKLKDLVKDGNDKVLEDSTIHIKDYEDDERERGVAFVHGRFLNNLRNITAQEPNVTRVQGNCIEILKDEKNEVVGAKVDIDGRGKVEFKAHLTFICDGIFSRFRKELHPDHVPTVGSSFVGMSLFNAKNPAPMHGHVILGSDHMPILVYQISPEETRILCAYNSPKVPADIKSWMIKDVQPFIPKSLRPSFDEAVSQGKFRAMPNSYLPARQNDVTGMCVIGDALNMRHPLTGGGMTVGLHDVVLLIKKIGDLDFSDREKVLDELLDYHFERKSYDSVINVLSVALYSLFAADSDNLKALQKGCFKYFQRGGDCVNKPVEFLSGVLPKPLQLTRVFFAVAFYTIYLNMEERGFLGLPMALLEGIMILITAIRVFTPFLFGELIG

Row | SMILES | hypersensitivity (larger reduction in growth than wild type at identical drug concentration) (GAL1-ERG11 strain) | enzyme inhibition [1] | hypersensitivity (larger reduction in growth than wild type at identical drug concentration) (GAL1-AUR1 strain) | enzyme inhibition [2] | hypersensitivity (larger reduction in growth than wild type at identical drug concentration) (GAL1-ERG1 strain) | potency of enzyme inhibition [3]
1 | OC(Cn1cncn1)(Cn1cncn1)c1ccc(F)cc1F [fluconazole] | prominent hypersensitive response | inhibits Erg11p | neither did GAL1-AUR1 show hypersensitivity |  |  | 
2 | CN(C/C=C/C#CC(C)(C)C)Cc1cccc2ccccc12 [terbinafine] | as hypersuscepible to terbinafine as GAL1-ERG1 | Erg11p is not |  | inhibited | hypersuscepible | 
3 | CC[C@@H](C)[C@@H]1NC(=O)[C@@H]2CCCN2C(=O)[C@H](Cc2ccccc2)N(C)C(=O)[C@H](Cc2ccccc2)NC(=O)[C@H](C(C)C)N(C)C(=O)[C@@H]([C@H](C)CC)OC(=O)[C@H](C(C)(C)O)N(C)C(=O)[C@H](CC(C)C)NC(=O)[C@H](C(C)C)N(C)C1=O [aureobasidinA] (cyclo(F[NMeF]P[aIle][NMeV]L[NMeVal(β-OH)][X1][NMeV])) | no increased sensitivity |  | prominent hypersensitive response |  |  | sub nanomolar potency
